Measurements reported in patent EP0605261B1, “Use of a flavone derivative as taste modifier and a method of modifying taste” (SAN-EI GEN F.F.I., INC., priority 1992, dated 1994).

Legend:
[1] = Sensory test (limiting method): enhancing the sourness of acid sugar solution; assay type: in vivo; parameters: key: (equivalent citric acid content / citric acid content with flavone) × 100; conditions: citric acid 1.000 (g), flavone derivative (I) 0.00001 (g), 8 panellers
Procedure: Compounds 1 to 11 of the flavone derivative (I) were used as a taste modifier to prepare acid sugar solution having compositions as follows:
As a control, 21 types of acid sugar solutions are used. In the control, the flavone derivative (I) is removed from the above composition and the content of citric acid is varied from 1.000 g to 1.500 g by 0.025 g.
Sensory tests were carried out by 8 trained panellers in accordance with a limiting method described in the Hand Book of Sensory evaluation, edited by Research Committee of sensory evaluation, Union of Japanese Scientists and Engineers, p.398 (1973) in use of acid sugar solutions containing respective flavone derivatives (I) and another acid sugar solutions having a various content of citric acid.
As for the content of citric acid, two types sensory tests were conducted, one was an ascending system (testing from solution with low concentration) and another was a descending system (testing from solution with high concentration).
The sensory evaluation was made by a value of enhancing the sourness. The value of enhancing the sourness was calculated by the following formula based on the content of citric acid in acid sugar solutions with varied concentration of citric acid, which has an equivalent stimulation with an acid sugar solution containing the flavone derivative (I) Value of enhancing the sourness = (content of citric acid in acid sugar solution sensed as an equivalent stimulation/content of citric acid in acid sugar solution containing the flavone derivative (I)) x 100 [formula]

[2] = Sensory test: savor (hard candy); assay type: in vivo; conditions: hard candy with Aspartame; 0.0001 w/w%; 10 panellers
Procedure: Compound 10 of the flavone derivative (I) was used as a taste modifier, and 22.5 w/w% thick malt syrup of reducing maltose, 22.5 w/w% reducing starch saccharide and 0.08 w/w% of Aspartame were used as sweetening agents. In accordance with a general method, hard candy containing 0.0001 w/w% of the flavone derivative (I) and flavone derivative (I) free hard candy were prepared. Sensory tests for the savor were conducted by 10 panellers comprised of 6 males and 4 females at the age from 20 to 40.

SMILES: COc1ccc(-c2cc(=O)c3c(O)c(OC)c(OC)c(OC)c3o2)cc1OC [Compound 10, 5-hydroxy-3',4',6,7,8-pentamethoxyflavone]
- Value of enhancing the sourness Ascending system ([1]; ascending system (from low concentration)): 120
- Value of enhancing the sourness Descending system ([1]; descending system (from high concentration)): 123
- the savor, as sensed by all the panellers [2]: better than that of the control
